What all share (assay type): biochemical
One assay has as its target T1, Human PDE4B1 (Homo sapiens, UniProt Q07343, S133E/S654A/S659A/S661A).
T1 construct: His6 (N); thrombin cleavage site (N); made in house; host or cells: insect cells (baculovirus, pFastBac)
The experiment in a line: PDE4B1 Scintillation Proximity Assay (SPA), inhibition of enzyme activity. As to the method: The recombinant Bacmid was isolated and used to transfect insect cells to generate a viral stock. To generate cell paste for purification, insect cells were infected with the virus stock and cells were harvested 72 hours after infection as described in Seeger, T. F. et al., Brain Research 985 (2003) 113-126. Insect cell paste was lysed and after centrifugation, the supernatant was chromatographed on Ni-NTA agarose (Qiagen) as described in Seeger, T. F. et al., Brain Research 985 (2003) 113-126. Ni-NTA agarose eluting fractions containing PDE4 were pooled, diluted with Q buffer A (20 mM Tris HCl pH 8, 5% glycerol, 1 mM TCEP) to reduce NaCl to ˜100 mM and loaded on a Source 15Q (GE Healthcare) column. After washing with Q buffer A/10% buffer B to baseline, PDE4D was eluted with a gradient from 10% to 60% of Buffer B (20 mM Tris HCl pH 8, 1 M NaCl, 5% glycerol, 1 mM TCEP). PDE4D fractions were analyzed by SDS-PAGE Coomassie blue staining, pooled based on purity, frozen and stored at −80° C.
(§1) The PDE4A3, PDE4B1, PDE4C1 and PDE4D3 assays use the Scintillation Proximity Assay (SPA) technology to measure the inhibition of human recombinant […], PDE4C1, and PDE4D3 enzyme activity by compounds in vitro. The PDE4A1, PDE4B3, PDE4C1, and PDE4D3 assays are run in parallel using identical parameters, except for the concentration of enzyme (80 pM PDE4A3, 40 pM PDE4B3, 40 pM PDE4C1 and 10 pM PDE4D). The assays are performed in a 384-well format with 50 uL assay buffer (50 mM TRIS pH7.5; 1.3 mM MgCl2; 0.01% Brij) containing enough PDE4A3, PDE4B1, PDE4C1, and PDE4D to convert ˜20% of substrate (1 μM cAMP consisting of 20 nM 3H-cAMP+[…] cold cAMP) and a range of inhibitors. Reactions are incubated for 30 min at 25° C. The addition of 20 uL of 8 mg/ml yitrium silicate SPA beads (Perkin Elmer) stops the reaction. The plates are sealed (TopSeal, Perkin Elmer) and the beads are allowed to settle for 8 hrs, after which they are read on the Trilux Microbeta overnight.
Background: In a scintillation proximity assay essentially only radioactivity close to the scintillant gives light.

A further assay addresses T2, Human PDE4C1 (Homo sapiens, UniProt Q08493).
T2 construct: His6 (N); FLAG (C); made in house; host or cells: insect cells (baculovirus, pFastBac)
The experiment in a line: PDE4C1 Scintillation Proximity Assay (SPA), inhibition of enzyme activity. Conditions: geometric mean of 2-7 determinations unless otherwise indicated (b: ≥8 determinations; c: single determination), 1 μM cAMP, 30 min at 25° C., read-out: Human PDE4C FL. As to the method:
(§2) The recombinant Bacmid was isolated and used to transfect insect cells to generate a viral stock. To generate cell paste for purification, insect cells were infected with the virus stock and cells were harvested 72 hours after infection. Insect cell paste was lysed and after centrifugation, the supernatant was batch bound to Ni-NTA agarose (GE Healthcare) and eluted with 250 mM imidazole. This eluate was diluted with FLAG buffer (50 mM Tris HCL pH 7.5, 100 mM NaCl, 5% Glycerol, 1 mM TCEP with protease inhibitors) and batch bound to ant-FLAG M2 agarose (Sigma) overnight at 4° C. The agarose was packed into a column, washed with buffer and eluted with buffer containing elute using 250 ug/ml Flag-peptide. Fractions were analyzed using SDS-PAGE Coomassie blue staining and pooled based on purity. Pooled fractions were chromatographed on a S200 120 ml column (GE Healthcare) in 50 mM Tris HCL pH 7.5, 150 mM NaCl, 10% Glycerol, 2 mM TCEP with protease inhibitors. PDE4C1 fractions were analyzed by SDS-PAGE Coomassie blue staining, pooled based on purity, dialyzed against 50 mM Tris HCL pH 7.5, 100 mM NaCl, 20% Glycerol, 2 mM TCEP, frozen and stored at −80° C.
as §1

Another assay has as its target T3, Human PDE4A3 (Homo sapiens, UniProt P27815).
T3 construct: His6 (N); FLAG (C); made in house; host or cells: insect cells (baculovirus, pFastBac)
In words: PDE4A3 Scintillation Proximity Assay (SPA), inhibition of enzyme activity. Conditions: geometric mean of 2-7 determinations unless otherwise indicated (b: ≥8 determinations; c: single determination), 1 μM cAMP, 30 min at 25° C., read-out: Human PDE4A FL.
Source text: as §2, with “Human PDE4A3 coding sequence (amino acids 2 to 825 from the sequence with accession number NP_001104779) was cloned into the baculovirus expression vector pFastBac (Invitrogen) engineered to include an N-terminal His6 affinity tag and a c-terminal FLAG affinity tag to aid in purification. The recombinant” for “The recombinant”, “protease inhibitors. PDE4A3 fractions were” for “protease inhibitors. PDE4C1 fractions were”
as §1

The target of another assay is T4, human PDE4D3 (Homo sapiens, UniProt Q08499).
T4 construct: His6 (C); made in house; host or cells: insect cells (baculovirus, pFastBac)
The experiment in a line: PDE4D3 Scintillation Proximity Assay (SPA), inhibition of enzyme activity. The protocol:
The recombinant Bacmid was isolated and used to transfect insect cells to generate a viral stock. To generate cell paste for purification, insect cells were infected and cells were harvested 72 hours after infection. Insect cell paste was lysed and after centrifugation, the supernatant was chromatographed on Ni-NTA agarose (Qiagen) as described in Seeger, T. F. et al., Brain Research 985 (2003) 113-126. Ni-NTA agarose eluting fractions containing PDE4 were pooled, diluted with Q Buffer A (50 mM Tris HCl pH 8, 4% glycerol, 100 mM NaCl, 1 mM TCEP, Protease inhibitors EDTA-free (Roche)) to reduce NaCl to ˜200 mM, and loaded on a Q Sepharose (GE Healthcare) column. After washing with Q buffer A to baseline, PDE4D was eluted with a gradient from 10% to 60% of Buffer B (50 mM Tris HCl pH 8, 1 M NaCl, 4% glycerol, 1 mM TCEP). PDE4D fractions were analyzed by SDS-PAGE Coomassie blue staining, pooled based on purity, frozen and stored at −80° C.
as §1

[1] abbreviates: geometric mean of 2-7 determinations unless otherwise indicated (b: ≥8 determinations; c: single determination), 1 μM cAMP, 30 min at 25° C., read-out: Human PDE4B FL, IC50.
Where [2] appears, read: geometric mean of 2-7 determinations unless otherwise indicated (b: ≥8 determinations; c: single determination), 1 μM cAMP, 30 min at 25° C., read-out: Human PDE4D FL, IC50.

Molecules are shown by their SMILES. pIC50: −log10 of the molar value. Where a name gives a salt, the structure may show the parent alone. Read-outs that look alike come from different tables or passages of the source.

T2 sequence (Q08493 2-712): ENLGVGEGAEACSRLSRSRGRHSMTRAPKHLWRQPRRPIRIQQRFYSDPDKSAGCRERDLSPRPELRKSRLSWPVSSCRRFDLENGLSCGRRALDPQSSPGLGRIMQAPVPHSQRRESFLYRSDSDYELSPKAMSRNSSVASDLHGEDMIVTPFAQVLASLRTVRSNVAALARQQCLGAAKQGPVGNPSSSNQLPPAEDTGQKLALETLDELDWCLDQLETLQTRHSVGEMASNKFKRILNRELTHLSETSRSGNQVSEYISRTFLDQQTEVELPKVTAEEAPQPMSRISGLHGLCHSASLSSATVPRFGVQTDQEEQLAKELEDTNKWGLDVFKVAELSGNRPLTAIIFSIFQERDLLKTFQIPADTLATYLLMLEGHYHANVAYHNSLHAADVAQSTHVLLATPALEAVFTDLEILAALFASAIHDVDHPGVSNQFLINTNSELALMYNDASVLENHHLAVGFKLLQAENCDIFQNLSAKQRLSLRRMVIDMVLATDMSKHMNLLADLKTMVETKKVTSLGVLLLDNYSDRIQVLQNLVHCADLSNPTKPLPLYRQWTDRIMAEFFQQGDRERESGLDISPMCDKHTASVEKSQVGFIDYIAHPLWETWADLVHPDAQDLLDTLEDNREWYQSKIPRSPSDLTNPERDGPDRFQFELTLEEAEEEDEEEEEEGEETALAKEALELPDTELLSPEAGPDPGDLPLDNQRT
T4 sequence (Q08499 186-808): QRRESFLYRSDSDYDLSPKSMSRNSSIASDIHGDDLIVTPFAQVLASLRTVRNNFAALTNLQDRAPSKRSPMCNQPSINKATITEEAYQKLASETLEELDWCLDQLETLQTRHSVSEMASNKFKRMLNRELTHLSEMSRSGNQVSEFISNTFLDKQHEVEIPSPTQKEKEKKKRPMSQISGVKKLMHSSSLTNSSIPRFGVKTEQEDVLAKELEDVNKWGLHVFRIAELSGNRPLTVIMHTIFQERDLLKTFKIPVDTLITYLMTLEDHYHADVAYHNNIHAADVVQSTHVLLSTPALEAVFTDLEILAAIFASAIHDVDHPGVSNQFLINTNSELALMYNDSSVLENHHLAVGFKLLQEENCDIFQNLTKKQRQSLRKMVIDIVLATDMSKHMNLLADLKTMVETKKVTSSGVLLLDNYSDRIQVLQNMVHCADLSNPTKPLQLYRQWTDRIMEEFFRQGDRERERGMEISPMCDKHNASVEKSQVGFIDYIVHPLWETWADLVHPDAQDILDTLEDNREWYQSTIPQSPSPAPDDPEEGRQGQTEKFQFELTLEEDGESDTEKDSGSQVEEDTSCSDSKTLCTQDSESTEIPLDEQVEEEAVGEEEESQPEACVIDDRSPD
T1 sequence (Q07343 122-736 S133E/S654A/S659A/S661A): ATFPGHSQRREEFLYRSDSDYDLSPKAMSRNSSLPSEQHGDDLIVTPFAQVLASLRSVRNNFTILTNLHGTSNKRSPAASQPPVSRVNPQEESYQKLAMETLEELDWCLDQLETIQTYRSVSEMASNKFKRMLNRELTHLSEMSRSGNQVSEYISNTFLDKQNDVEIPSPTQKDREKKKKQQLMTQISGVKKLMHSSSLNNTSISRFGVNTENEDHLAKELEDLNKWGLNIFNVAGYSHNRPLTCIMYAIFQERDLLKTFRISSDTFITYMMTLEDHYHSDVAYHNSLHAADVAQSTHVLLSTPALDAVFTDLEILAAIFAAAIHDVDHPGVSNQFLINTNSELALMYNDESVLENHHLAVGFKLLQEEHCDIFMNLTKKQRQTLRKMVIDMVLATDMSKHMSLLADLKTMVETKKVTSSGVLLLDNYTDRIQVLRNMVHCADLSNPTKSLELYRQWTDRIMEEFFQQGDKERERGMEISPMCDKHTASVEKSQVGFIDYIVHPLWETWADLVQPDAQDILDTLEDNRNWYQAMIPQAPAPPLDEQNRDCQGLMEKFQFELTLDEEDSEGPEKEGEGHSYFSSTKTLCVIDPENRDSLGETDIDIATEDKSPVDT
T3 sequence (P27815 2-825 isoform P27815-6): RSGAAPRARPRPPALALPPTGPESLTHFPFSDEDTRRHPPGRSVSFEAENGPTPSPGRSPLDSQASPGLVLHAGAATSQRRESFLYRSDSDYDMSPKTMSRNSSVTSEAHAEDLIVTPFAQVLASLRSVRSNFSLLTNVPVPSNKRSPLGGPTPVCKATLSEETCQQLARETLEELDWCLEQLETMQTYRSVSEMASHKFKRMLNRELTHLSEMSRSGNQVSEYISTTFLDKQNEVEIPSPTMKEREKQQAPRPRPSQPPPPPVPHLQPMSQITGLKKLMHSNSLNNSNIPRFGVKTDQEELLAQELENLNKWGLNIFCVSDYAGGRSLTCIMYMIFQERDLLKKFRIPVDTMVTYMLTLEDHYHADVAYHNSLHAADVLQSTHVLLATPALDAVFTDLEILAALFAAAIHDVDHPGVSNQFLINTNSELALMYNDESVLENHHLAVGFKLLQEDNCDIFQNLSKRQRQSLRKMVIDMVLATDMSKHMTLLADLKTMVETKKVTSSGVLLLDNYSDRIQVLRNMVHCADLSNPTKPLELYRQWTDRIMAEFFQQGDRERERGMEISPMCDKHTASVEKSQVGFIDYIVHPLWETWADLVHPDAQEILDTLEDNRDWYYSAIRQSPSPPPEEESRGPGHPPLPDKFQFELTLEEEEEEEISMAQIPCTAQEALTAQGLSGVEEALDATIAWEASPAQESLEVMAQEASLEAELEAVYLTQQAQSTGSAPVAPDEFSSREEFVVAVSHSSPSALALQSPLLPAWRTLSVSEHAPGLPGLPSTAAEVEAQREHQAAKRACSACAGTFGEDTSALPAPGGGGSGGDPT

With `O=C(c1nn2cc(F)cnc2c1-c1ccc(Cl)cc1)N1CCC1` [Example 9, Azetidin-1-yl[3-(4-chlorophenyl)-6-fluoropyrazolo[1,5-a]pyrimidin-2-yl]methanone, Formate Salt], the pIC50 against Human PDE4B1 is 7.46; on Human PDE4C1, 7.26; at Human PDE4A3, 7.78; against human PDE4D3 it was 5.43.
`O=C(NC1CC1)c1nn2cccnc2c1-c1ccc(Cl)cc1` [Example 10, 3-(4-chlorophenyl)-N-cyclopropylpyrazolo[1,5-a]pyrimidine-2-carboxamide]: the pIC50 on Human PDE4B1 (setting [1]) was 7.01; at Human PDE4C1, 7.37; on Human PDE4A3 it was 7.60; on human PDE4D3 (setting [2]) it was 5.23.
Regarding `CC1(NC(=O)c2nn3cccnc3c2-c2ccc(Cl)cc2)CC1` [Example 11, 3-(4-chlorophenyl)-N-(1-methylcyclopropyl)pyrazolo[1,5-a]pyrimidine-2-carboxamide], the pIC50 on Human PDE4B1 (setting [1]) is 7.20; on Human PDE4C1 it was 6.56; at Human PDE4A3 it was 7.09; at human PDE4D3 (setting [2]), below 4.97.
The corresponding values for `O=C(c1nn2cccnc2c1-c1ccc(Cl)c(F)c1)N1CCC1` [Example 12, azetidin-1-yl[3-(4-chloro-3-fluorophenyl)pyrazolo[1,5-a]pyrimidin-2-yl]methanone] are 8.22, 7.32, 7.66 and 6.00.
The corresponding values for `O=C(NC1CC1)c1nn2cccnc2c1-c1cc(Cl)ccc1F` [Example 13, 3-(5-chloro-2-fluorophenyl)-N-cyclopropylpyrazolo[1,5-a]pyrimidine-2-carboxamide] are 7.24, 7.24, 7.57 and 5.61.
The corresponding values for `O=C(NC1CC1)c1nn2cccnc2c1-c1ccc(Cl)cc1F` [Example 14, 3-(4-chloro-2-fluorophenyl)-N-cyclopropylpyrazolo[1,5-a]pyrimidine-2-carboxamide] are 6.75, 7.08, 7.29 and below 4.78.
`N#Cc1ccc(-c2c(C(=O)N3CCC3)nn3cccnc23)cc1F` [Example 15, 4-[2-(azetidin-1-ylcarbonyl)pyrazolo[1,5-a]pyrimidin-3-yl]-2-fluorobenzonitrile]: the pIC50 was 7.29 on Human PDE4B1 (setting [1]), 7.28 on Human PDE4C1, 6.96 at Human PDE4A3 and 5.18 at human PDE4D3 (setting [2]).
`CCNC(=O)c1nn2cccnc2c1-c1cc(F)c(C#N)cc1C` [Example 16, 3-(4-cyano-5-fluoro-2-methylphenyl)-N-ethylpyrazolo[1,5-a]pyrimidine-2-carboxamide]: the pIC50 was 7.27 on Human PDE4B1 (setting [1]), 7.10 on Human PDE4C1, 7.80 at Human PDE4A3 and 5.60 on human PDE4D3 (setting [2]).
As for `CCNC(=O)c1nn2cccnc2c1-c1cc(F)c(Cl)cc1C` [Example 17, 3-(4-chloro-5-fluoro-2-methylphenyl)-N-ethylpyrazolo[1,5-a]pyrimidine-2-carboxamide], the pIC50 was 7.68 at Human PDE4B1 (setting [1]), 7.10 at Human PDE4C1, 8.07 at Human PDE4A3 and 6.01 on human PDE4D3 (setting [2]).
On to `CCNC(=O)c1nn2cccnc2c1-c1ccc(Cl)cc1C` [Example 18, 3-(4-chloro-2-methylphenyl)-N-ethylpyrazolo[1,5-a]pyrimidine-2-carboxamide], for which the pIC50 on Human PDE4B1 (setting [1]) was 6.82; on Human PDE4C1, 7.01; at Human PDE4A3, 7.40; on human PDE4D3 (setting [2]) it was 5.16.
As for `CCNC(=O)c1nn2cccnc2c1-c1cc(F)c(Cl)cc1F` [Example 19, 3-(4-chloro-2,5-difluorophenyl)-N-ethylpyrazolo[1,5-a]pyrimidine-2-carboxamide], the pIC50 on Human PDE4B1 (setting [1]) is 7.38; on Human PDE4C1 it was 7.44; at Human PDE4A3, 7.95; on human PDE4D3 (setting [2]), 5.68.
Turning to `O=C(c1nn2cccnc2c1-c1ccc(Cl)cc1F)N1CCC1` [Example 20, azetidin-1-yl[3-(4-chloro-2-fluorophenyl)pyrazolo[1,5-a]pyrimidin-2-yl]methanone], the pIC50 is 7.17 on Human PDE4B1 (setting [1]), 6.95 on Human PDE4C1, 7.19 on Human PDE4A3 and 4.96 at human PDE4D3 (setting [2]).
In the case of `Cc1cc(Cl)ccc1-c1c(C(=O)N2CCC2)nn2cccnc12` [Example 21, azetidin-1-yl[3-(4-chloro-2-methylphenyl)pyrazolo[1,5-a]pyrimidin-2-yl]methanone], the pIC50 at Human PDE4B1 (setting [1]) was 7.35; at Human PDE4C1, 7.25; on Human PDE4A3 it was 7.78; at human PDE4D3 (setting [2]), 5.32.
On to `Cc1cc(C#N)c(F)cc1-c1c(C(=O)NC2CCC2)nn2cccnc12` [Example 22, 3-(4-cyano-5-fluoro-2-methylphenyl)-N-cyclobutylpyrazolo[1,5-a]pyrimidine-2-carboxamide], for which the pIC50 at Human PDE4B1 (setting [1]) is 6.56; at Human PDE4C1, 6.91; on Human PDE4A3, 6.78; on human PDE4D3 (setting [2]) it was 5.06.

Source of the values: US10131669B2, “Pyrazolopyrimidine compounds” (Pfizer Inc., priority 2014, dated 2018).
